Data from patent US11149064B2, “Vasoactive polypeptides for smooth muscle relaxation” (Vanderbilt University, priority 2016, dated 2021).
Entries after “also recorded” stand apart in the source; their conditions may differ. Non-standard residues stand in square brackets, D forms with d. No end group written: not given here. *: point of attachment. Palmitoyl = CCCCCCCCCCCCCCCC(=O)*; pS = N[C@@H](COP(=O)(O)O)C(=O)O

Tests used:
airway smooth muscle = test: Relaxation of carbachol-precontracted porcine bronchial rings in a muscle bath; assay type: cell-based; conditions: polypeptides 0.1 to 1.0 mM (FIG. 8)
Method: (§1) Bronchial rings were isolated from fresh porcine lung, suspended in a muscle bath, and force generated were recorded. Carbachol-precontracted tissues were treated with escalating doses of the polypeptides indicated (0.1 to 1.0 mM). Contractile response was defined by stress, which was calculated using the force generated by the tissues. [10^5 Newtons (N)/m^2]=force (g)×0.0987/area, where area is equal to the wet weight [(mg)/length (mm at maximal length)] divided by 1.055). Percent relaxation were determined as a change to the maximal carbachol-induced contraction. Data are reported as mean responses±standard error of the mean. n=2-4.
as §1, with “Freshly isolated porcine bronchial” for “Bronchial”, “were” for “were isolated from fresh porcine lung,”, “bath.” for “bath, and force generated were recorded.”, “with” for “with escalating doses of”, “alone (−nife) or 0.1 uM nifedipine followed by the polypeptides (+nife).” for “indicated (0.1 to 1.0 mM).”, “n=1-2.” for “n=2-4.”
Bronchial rings were suspended in the muscle bath and equilibrated for 3 hours at a basal tension of 1 gram. Rings were then contracted with the agonist carbachol (150 nM) and then relaxed with cumulative doses of the polypeptides (0.1 to 1.0 mM).
Porcine bronchial rings were suspended in the muscle bath. Tissues were treated with channel blocker alone, polypeptide alone, or in combination. The results of these study are illustrated in FIG. 9.
Rat aortae were isolated from euthanized female Sprague-Dawley rats. Porcine bronchial rings were isolated from lung obtained from euthanized female Yorkshire pigs.

rat aortic smooth muscle = test: Vasorelaxation of pre-contracted, endothelium-denuded rat aortic rings in a muscle bath; assay type: cell-based; conditions: for relaxation of rat aortic smooth muscle: phenylephrine-precontracted, endothelium-denuded rat aorta, escalating doses of polypeptide 0.1 to 1.0 mM (FIG. 2); for potency in vasorelaxation after chemical or formulatory modification of VASP1: compared with VASP1 (FIGS. 6 and 7)
Method: (§2) Freshly isolated rat aorta denuded of endothelium were suspended in a muscle bath and force generated were recorded. Phenylephrine-precontracted tissues were treated with either sodium nitroprusside (1 nM) or escalating doses of the polypeptides indicated (0.1 to 1.0 mM). Contractile response was defined by stress, which was calculated using the force generated by the tissues. [10^5 Newtons (N)/m^2]−force (g)×0.0987/area, where area is equal to the wet weight [(mg)/length (mm at maximal length)] divided by 1.055). Percent relaxation were determined as a change to the maximal phenylephrine-induced contraction. Data are reported as mean responses±standard error of the mean. n=3-17.
FIGS. 4A and B show graphs illustrating the effects of nimodipine on polypeptide induced vasorelaxation in phenylephrine precontracted rat aortic smooth muscle. Freshly isolated rat aorta denuded of endothelium were suspended in a muscle bath and force generated were recorded. Phenylephrine-precontracted tissues were treated either with escalating doses of the calcium channel blocker nimodipine (NIMO; 0.01 to 1 uM), the VASP1 polypeptide (0.1 to 1.0 mM), nimodipine (0.1 μM) followed by the VASP1 polypeptide (0.25 mM) [NIMO/VASP1], the VASP1 polypeptide (0.25 mM) followed by nimodipine (0.1 μM) [VASP1/NIMO], or simultaneous addition of nimodipine (0.1 μM) plus the VASP1 polypeptide (0.25 mM) [NIMO+VASP1]. Contractile response was defined by stress, which was calculated using the force generated by the tissues. [10^5 Newtons (N)/m^2]=force (g)×0.0987/area, where area is equal to the wet weight [(mg)/length (mm at maximal length)] divided by 1.055). (A) Percent relaxation were determined as a change to the maximal phenylephrine-induced contraction. Data are reported as mean responses±standard error of the mean. n=3-4. (B). Representative tracings of force generated in response to phenylephrine, nimodipine and the VASP1 polypeptides.
Freshly isolated rat aorta denuded of endothelium were suspended in a muscle bath and force generated were recorded. (A) Endothelin 1 (ET)-precontracted tissues were treated either with escalating doses of the calcium channel blocker nimodipine (NIMO; 0.001 to 0.1 uM), the VASP1 polypeptide (0.1 to 1.0 mM). (B) ET-precontracted tissues were treated with VASP1 polypeptide alone (0.25 mM), nimodipine alone (0.01 or 0.1 uM), nimodipine (0.01 or 0.1 uM) followed by the VASP1 polypeptide (0.25 mM), [NIMO/VASP1], the VASP1 polypeptide (0.25 mM) followed by nimodipine (0.01 or 0.1 uM), [VASP1/NIMO], or simultaneous addition of nimodipine (0.1 uM) plus the VASP1 polypeptide (0.25 mM) [NIMO+VASP1]. Contractile response was defined by stress, which was calculated using the force generated by the tissues. [10^5 Newtons (N)/m^2]=force (g)×0.0987/area, where area is equal to the wet weight [(mg)/length (mm at maximal length)] divided by 1.055). (A) Percent relaxation were determined as a change to the maximal phenylephrine-induced contraction. Data are reported as mean responses±standard error of the mean. n=2-12.
as §2, with “bath,” for “bath”, “polypeptides or polypeptide-containing nanoparticles” for “polypeptides”, “(N)/m^2]=force” for “(N)/m^2]−force”, “n=2-6.” for “n=3-17.”
Freshly isolated rat aorta denuded of endothelium were suspended in a muscle bath and force generated were recorded. […]

[1] = phenylephrine or endothelin-1 pre-contracted rat aortic rings

Substance | relaxation of airway smooth muscle (airway smooth muscle) | relaxation of rat aortic smooth muscle (rat aortic smooth muscle) | also measured
IRQTADRWRVSLDVNLTVK [SEQ ID NO: 4, peptide analogue of HSP27] | directly cause smooth muscle relaxation | directly cause smooth muscle relaxation | –
KLRKV(pS)K (KLRKV[pS]K) [SEQ ID NO: 9, control peptide without transduction domain] | – | do not directly cause relaxation; also recorded: exception | –
KLRKV(pS)KLTVK (KLRKV[pS]KLTVK) [SEQ ID NO: 8, phosphopeptide analogue of VASP] | directly cause smooth muscle relaxation | directly cause smooth muscle relaxation | –
YARAAARQARAA(pS)GVAVSDG (YARAAARQARAA[pS]GVAVSDG) [SEQ ID NO: 1, phosphopeptide analogue of cofilin] | directly cause smooth muscle relaxation | directly cause smooth muscle relaxation | –
YARAAARQARAA(pS)GVTVSDEVI (YARAAARQARAA[pS]GVTVSDEVI) [SEQ ID NO: 2, phosphopeptide analogue of cofilin] | directly cause smooth muscle relaxation | directly cause smooth muscle relaxation | –
YARAAARQARAIRQTADRWRVSLDVN [SEQ ID NO: 3, peptide analogue of HSP27] | directly cause smooth muscle relaxation | directly cause smooth muscle relaxation | –
YARAAARQARAK(pS)RVLKK (YARAAARQARAK[pS]RVLKK) [SEQ ID NO: 10, control peptide] | – | do not directly cause relaxation | relaxation of rat aortic smooth muscle (rat aortic smooth muscle; listed as scrVASP1): exception
YARAAARQARAKLRKV(pS)K (YARAAARQARAKLRKV[pS]K) [SEQ ID NO: 5, phosphopeptide analogue of VASP] | directly cause smooth muscle relaxation | directly cause smooth muscle relaxation | vasorelaxation in combination with calcium channel blocker nimodipine (rat aortic smooth muscle; phenylephrine or endothelin-1 pre-contracted rat aortic rings, VASP1 0.25 mM with nimodipine 0.01 or 0.1 uM (FIGS. 4A-5B)): works in concert with calcium channel blocker, nimodipine, to enhance vasorelaxation; relaxation of rat aortic smooth muscle (rat aortic smooth muscle; listed as VASP1): sequence specific
YARAAARQARAKLRKV(pS)KQEEA (YARAAARQARAKLRKV[pS]KQEEA) [SEQ ID NO: 6, phosphopeptide analogue of VASP] | directly cause smooth muscle relaxation | directly cause smooth muscle relaxation | –
YARAAARQARAKLRKV(pS)KQEEASG (YARAAARQARAKLRKV[pS]KQEEASG) [SEQ ID NO: 7, phosphopeptide analogue of VASP] | directly cause smooth muscle relaxation | directly cause smooth muscle relaxation | –
YARAAARQARA{K(palm)}GGKLRKV(pS)K (YARAAARQARAK(Palmitoyl)GGKLRKV[pS]K) [SEQ ID NO: 12] | – | – | potency in vasorelaxation after chemical or formulatory modification of VASP1 (rat aortic smooth muscle; [1]): directly cause smooth muscle relaxation with enhanced potency
YARAAARQARA{K(palm)}LRKV(pS)K (YARAAARQARAK(Palmitoyl)LRKV[pS]K) [SEQ ID NO: 11] | – | – | potency in vasorelaxation after chemical or formulatory modification of VASP1 (rat aortic smooth muscle; [1]): directly cause smooth muscle relaxation with enhanced potency
